Laboratory results taken from US9023862B2, “Medicament for the treatment of endometriosis” (Ferring International Center S.A., priority 2007, dated 2015).

Key:
Notch-4 = assay: TaqMan Real-time PCR gene expression in implants: Notch-4; assay type: in vivo, mice; details: for Notch-4 relative expression: vehicle 1.0 ± 0.1, Mean ± SD
Source text: (§1) TaqMan Real-time PCR and 2^−ΔΔCt methods were used to analyze the gene expression profiles of three different markers that promote angiogenesis (VEGF, VEGFR-2, Notch-4); Angiopoietin-1 (Ang-1), an antiangiogenesis marker which promotes the enlargement of existing vessels and resistance to leakage; and Wnt-1.
(§2) TaqMan Real-time PCR and 2^−ΔΔCt methods were used to analyze the gene expression profiles of three different markers that promote angiogenesis (VEGF, VEGFR-2, Notch-4); Angiopoietin-1 (Ang-1), an antiangiogenesis marker which promotes the enlargement of existing vessels and resistance to leakage; and Wnt-1. The housekeeping 18S rRNA was used to normalize the target gene Ct values. The Ct value in each group was expressed relative to the control group Ct values (calibrator), to calculate the relative expression by the 2^−ΔΔCt method. cDNA obtained from sarcoma 180 tumor cells (S-180) and human umbilical vein endothelial cells (HUVEC) was used as negative and positive control, respectively, for the VEGF and VEGFR-2 gene expression. Spleen was used as positive control for Ang-1 and Wnt-1, and lung was employed as a Notch-4 positive control.

endometriotic lesions [1] = assay: Ki-67 immunocytochemistry, proliferative activity of the implants; assay type: in vivo, mice; details: both low and high dose groups vs control; P<0.001
Protocol: (§3) Morphometric study was performed to measure the implants area and cellular density. Immunocytochemistry with Ki-67 (monoclonal IgG1 DAKO Corp., Denmark) antibody was performed in order to evaluate the proliferative activity of the implants. The histopathological and subcellular ultrastructural changes were detected using an optical microscope (OM), transmission electronic microscope (TEM) and histochemical staining. Optical microscopy (OM), transmission electron microscopy (TEM) and morphometry were performed to ascertain the presence of endometrial glands and stroma and study subcellular ultrastructural changes, area of the implants and cellular density.
An immunocyto chemistry study using the Ki-67 antibody (i.e. analysing the degree of cellular proliferation employing antibodies against Ki-67) was used to evaluate the proliferative activity of the implants using methods known in the art.

VEGFR-2 (KDR) = assay: TaqMan Real-time PCR gene expression in implants: VEGFR-2 (KDR); assay type: in vivo, mice; details: for VEGFR-2 (KDR) relative expression: vehicle 1.0 ± 0.1, Mean ± SD
Source text: as §1, §2

VEGF = assay: TaqMan Real-time PCR gene expression in implants: VEGF; assay type: in vivo, mice; details: for VEGF relative expression: vehicle 1.2 ± 0.3, Mean ± SD
Source text: as §1, §2

[2] = mouse, in vivo
Source text: (§4) Three weeks after implantation the animals were split into three groups. […] Two weeks after treatment the animals were sacrificed and the endometriotic lesions sampled and analysed as set out below.

endometriotic lesions [3] = assay: Nude mouse endometriosis model: active lesions, histology (OM, TEM) and morphometry; assay type: in vivo, mice; details: for percentage of active lesions: two weeks, control 89.6±5.7%, p=0.0169, mean ± SEM
Protocol: An experimental animal endometriosis model was developed in nude mice by inserting human endometrium fragments. Female mice (Hsd: Athimic Nude-nu, Harlan Ibérica S. L, Barcelona, Spain) were individually housed in autoclaved cages and bedding, in laminar flow filtered hoods. The animal room was maintained at 26 C with a 12-h light, 12-h dark cycle, and mice were fed ad libitum with autoclaved laboratory rodent chow and acidified water. All handling was performed in laminar flow filtered hoods. A mixture of ketamine/medetomidine (75 μg/g ketamine and 1 μg/g medetomidine) (Ketolar®, Parke-Davis, España; Domtor®, Pfizer, Spain) i.p injected, was used to anesthetize mice before invasive procedures and atipamezole (Antisedan®, SmithKline Beecham, Spain) 1 μg/g i.p injected, to reverse the anesthesia effects, was used after invasive procedures, using sterile instruments.
At the age of 5 weeks, sterile 60-d release capsules containing 18 mg 17β-estradiol (Innovative Research of America, Sarasota, Fla.) were placed sc in the neck of each animal. According to the manufacturer's information, capsules provide continuous release of hormone at serum concentrations of 150-250 pmol/liter, in the range of physiological levels in mice during the estrous cycle. This stable physiological level of estrogen promotes the growth of transplanted human endometrium and avoids intermouse differences related to various stages of the estrous cycle.
Four days after insertion of the estrogen pellet, an entrance was made to the peritoneal cavity in the midline in the lower abdomen to insert fresh human endometrium from ovum pick-up donors. These fragments were stuck by glue (Vetabond®, 3M Animal Care products, USA) to the peritoneum. This protocol allowed to mimic the pathologic situation of retrograde menstruation that occur in women with endometriosis.
as §3

Wnt-1 = assay: TaqMan Real-time PCR gene expression in implants: Wnt-1; assay type: in vivo, mice; details: for Wnt-1 relative expression: vehicle 1.0 ± 0.1, Mean ± SD
Source text: as §1, §2

[4] = Toxicity in the nude mouse endometriosis study; details: 0.05 and 0.1 mg/kg/day oral, two weeks
Source text: as §4

[5] = test system: blood vessels in endometriotic lesions; assay: Immunofluorescence (vWF/α-SMA) of new and mature blood vessels in the implants; assay type: in vivo, mice; details: low and high dose groups vs control
Protocol: The anti-angiogenic effects of the dopamine agonists were assessed by immunofluorescence, the antibodies used in confocal microscopy raised against Von Willebrand factor (vWF monoclonal IgG1, DAKO Corp., Denmark) present in endothelial cells and vascular smooth muscle cells (monoclonal IgG2 α-SMA-FITC conjugated de Sigma, St Louis, USA). Blood vessel which are not of new formation, are rounded by a smooth muscle layer which confers maturity to them. Identification of endothelial cells was made employing vWF, whereas mature vessels were identified by α-SMA positive staining. Thus, vWF+/αSMA− blood vessels were considered new or immature, while vWF+/αSMA+ vessels were classified as old or mature blood vessels.
The angiogenic status of the lesions was initially analyzed using immunofluorescence employing antibodies to identify new (vWF+/αSMA−) and old vessels (vWF+/αSMA+) and confocal microscopy (Leica Confocal Software). Immunofluorescence employing antibodies raised against the Von Willebrand factor (vWF) present in endothelial cells and vascular smooth muscle cells (α-SMA) can be used to test the antiangiogenic action Cb2. Blood vessel which are not of new formation, are rounded by a smooth muscle layer which confers maturity to them. Identification of endothelial cells was made employing vWF, whereas mature vessels were identified by α-SMA positive staining. […]

Ang-1 = assay: TaqMan Real-time PCR gene expression in implants: Ang-1; assay type: in vivo, mice; details: for Ang-1 relative expression: vehicle 1.1 ± 0.2, Mean ± SD
Source text: as §1, §2

[6] = low and high dose groups, p <0.05

Question: What does the source list for `C=CCN1C[C@H](C(=O)N(CCCN(C)C)C(=O)NCC)C[C@@H]2c3cccc4[nH]cc(c34)C[C@H]21` [cabergoline]?
Answer: Notch-4 relative expression (Notch-4; HIGH DOSE (0.1 mg/kg/day)): 0.4 ± 0.1; Notch-4 relative expression (Notch-4; LOW DOSE (0.05 mg/kg/day)): 0.5 ± 0.1; Expression of Notch-4 in treated groups vs vehicle (Notch-4; [6]): Downregulated; proliferation (Proliferation Index, Ki-67 positive cells) (endometriotic lesions [1]): decrease in proliferation; VEGFR-2 (KDR) relative expression (VEGFR-2 (KDR); HIGH DOSE (0.1 mg/kg/day)): 0.3 ± 0.1; VEGFR-2 (KDR) relative expression (VEGFR-2 (KDR); LOW DOSE (0.05 mg/kg/day)): 0.4 ± 0.1; Expression of VEGFR-2 (KDR) in treated groups vs vehicle (VEGFR-2 (KDR); [6]): Downregulated; VEGF relative expression (VEGF; HIGH DOSE (0.1 mg/kg/day)): 0.4 ± 0.1; VEGF relative expression (VEGF; LOW DOSE (0.05 mg/kg/day)): 0.5 ± 0.2; VEGF expression in endometrial implants (VEGF; increasing doses (control, 0.05, 0.1 mg/kg/day), FIG. 6a): trend towards decreased VEGF expression; Expression of VEGF in treated groups vs vehicle (VEGF; [6]): Downregulated; body weight of the mice in the different treatment groups [2]: not significantly different; ratio glands/stroma (morphometry) (endometriotic lesions [3]; both low (0.05 mg/kg/day) and high (0.1 mg/kg/day) doses vs controls, p<0.05): more stroma and less glands than the controls; cellular density (morphometry) (endometriotic lesions [3]; control, low and high dose groups): no statistical difference among groups; histology of treated lesions (OM and TEM) (endometriotic lesions [3]; high and low dose): a lax stroma, with lost cellularity and organization; percentage of active lesions (endometriotic lesions [3]; high dose 0.1 mg/kg/day oral): 60.4±8.4%; percentage of active lesions (endometriotic lesions [3]; low dose 0.05 mg/kg/day oral): 58.6±9.7%; Wnt-1 relative expression (Wnt-1; HIGH DOSE (0.1 mg/kg/day)): 3.3 ± 0.6; Wnt-1 relative expression (Wnt-1; LOW DOSE (0.05 mg/kg/day)): 3.4 ± 0.2; Expression of Wnt-1 in treated groups vs vehicle (Wnt-1; low and high dose groups, p =0.07): Upregulated; mortality following administration [4]: No mice in the study died; new blood vessel formation (angiogenesis) [5]: significantly reduced new blood vessel formation; Ang-1 relative expression (Ang-1; HIGH DOSE (0.1 mg/kg/day)): 3.7 ± 0.6; Ang-1 relative expression (Ang-1; LOW DOSE (0.05 mg/kg/day)): 3.2 ± 0.6; Expression of Ang-1 in treated groups vs vehicle (Ang-1; [6]): Upregulated
